Patent publication US20240252694A1, “CONJUGATES COMPRISING COVALENT BINDERS FOR TARGETING INTRACELLULAR KRAS G12C PROTEINS” (RayzeBio, Inc., priority 2021, published 2024)
Where two headings read alike, the source gives them in different places.

Key:
[1] = tested on: human ERK1 dually phosphorylated at T202/Y204 and ERK2; assay: Phosphorylated ERK1/ERK2 ELISA; assay type: cell-based; conditions: phosphorylated ERK in cell lysates after treatment with compounds, sandwich ELISA, cell line not stated
Experimental: An ERK phosphorylation ELISA kit was used to characterize compounds for KRAS-based cell activity. The sandwich ELISA (RnD Systems. Catalog #DYC1018B) measures human ERK1 that is dually phosphorylated at T202/Y204 and ERK2. Cell lysates from cells before and after treatment with compounds were prepared using kit manufacturer protocols.
All reagents were prepared following the kit's protocol. The wells of a 96-well microtiter plate were coated with 100 μL of 8.0 μg/mL of capture antibody in PBS. The plate was sealed and left to incubate overnight at ambient temperature. After incubation, the wells were washed with 400 μL of Wash Buffer for a total of 3 washes. Wells were then blocked by adding 300 μL of Block Buffer to each well and incubated at ambient temperature for 1-2 hours. After removal of the Block Buffer by aspirating and washing, 100 μL of standards and samples were added to the plate in duplicates and incubated for 2 hours at ambient temperature. The aspiration and wash steps were repeated to remove unbound standard and samples and 100 μL of 400 ng/mL detection antibody was applied to each well. After 2 hours at ambient temperature, detection antibody was removed by washing and 100 μL of Streptavidin-HRP was added to each well. Incubation of Streptavidin-HRP was at ambient temperature for 20 minutes, after which Streptavidin-HRP was removed by washing, 100 μL of Substrate Solution was added to each well and incubated for 20 minutes before 50 μL of Stop Solution was added to each well.
The optical density of each well was immediately analyzed at 450 nm with a wavelength correction at 540 nm. The standards were plotted by averaging the optical density for each replicate and fitted with a four-parameter logistic curve fit. Concentrations of phosphorylated ERK in cell lysate samples were determined by extrapolation from the standard curve and then adjusted for any dilution factors.

KRAS (G12C) = target: T1, KRAS (G12C) (Homo sapiens, UniProt P01116, G12C); assay: KRAS G12C Nucleotide Exchange Assay (fixed GTP concentration); assay type: biochemical
T1 construct: purchased BPS Bioscience 79859
T1 sequence (P01116 1-188 isoform P01116-2 G12C): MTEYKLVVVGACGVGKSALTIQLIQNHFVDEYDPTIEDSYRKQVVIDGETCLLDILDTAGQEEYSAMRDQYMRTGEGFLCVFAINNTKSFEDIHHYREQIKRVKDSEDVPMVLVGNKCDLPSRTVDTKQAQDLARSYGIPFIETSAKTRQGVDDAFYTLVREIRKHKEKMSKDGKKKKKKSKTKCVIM
Experimental: A KRAS (G12C) Nucleotide Exchange Assay kit was used to evaluate compound antagonistic binding. The assay kit (BPS Bioscience. Catalog #79859) utilizes KRAS (G12C) labeled with BODIPY-GDP to determine if compounds can affect the nucleotide exchange (GDP to GTP) in KRAS signaling, Compounds were typically characterized using both protocols: fixed GTP concentrations and fixed inhibitor concentrations.
All reagents were prepared following manufacturer's protocol. 5 μL BODIPY-GDP and 10 μL of KRAS buffer were added to each well. A 3-fold serial dilution of compound in 5% DMSO was prepared. Typically, compounds were tested in the range of 0 μM to 50 μM, but the range could be modified depending on the characterization needs. 5 μL of diluted compound was added to the wells and the plate was centrifuged briefly to ensure all components were mixed before incubation at ambient temperature. After incubation for 2 hours, 10 μM GTP and 25 mM EDTA were mixed at a 1:1 ratio and 5 μL was added to the wells. The plate was then incubated for 1 hour at ambient temperature. After incubation, fluorescence was measured at […].
Data was analyzed by plotting fluorescence vs GTP concentration for control wells and compound wells.

[2] = KRAS (G12C) labeled with BODIPY-GDP, fixed GTP concentration, 2 hours compound incubation, fluorescence readout, read-out: IC50

Molecule | IC50 ([1]; Homo sapiens) | further results
C=CC(=O)N1CCN(c2nc(OC[C@@H]3CCCN3CCCCCCNC(=O)CN3CCN(CC(=O)O)CCN(CC(=O)O)CCN(CC(=O)O)CC3)nc3c2CCN(c2cccc4cccc(Cl)c24)C3)C[C@@H]1CC#N [CHL-001, 2-[4,7-bis(carboxymethyl)-10-[2-[6-[(2S)-2-[[7-(8-chloro-1-naphthyl)-4-[(3S)-3-(cyanomethyl)-4-prop-2-enoyl-piperazin-1-yl]-6,8-dihydro-5H-pyrido[3,4-d]pyrimidin-2-yl]oxymethyl]pyrrolidin-1-yl]hexylamino]-2-oxo-ethyl]-1,4,7,10-tetrazacyclododec-1-yl]acetic acid] |  | IC50 [1]: ≥ 10 µM
C=CC(=O)N1CCN(c2nc(OC[C@@H]3CCCN3CCOCc3cccc(I)c3)nc3c2CCN(c2cccc4cccc(Cl)c24)C3)C[C@@H]1CC#N [Ex-1, 2-[(2S)-4-[7-(8-chloro-1-naphthyl)-2-[[(2S)-1-[2-[(3-iodophenyl)methoxy]ethyl]pyrrolidin-2-yl]methoxy]-6,8-dihydro-5H-pyrido[3,4-d]pyrimidin-4-yl]-1-prop-2-enoyl-piperazin-2-yl]acetonitrile] | 0.1 to 1 µM | 
C=CC(=O)N1CCN(c2nc(OC[C@@H]3CCCN3CCCOCc3cccc(I)c3)nc3c2CCN(c2cccc4cccc(Cl)c24)C3)C[C@@H]1CC#N [Ex-2, 2-[(2S)-4-[7-(8-chloro-1-naphthyl)-2-[[(2S)-1-[3-[(3-iodophenyl)methoxy]propyl]pyrrolidin-2-yl]methoxy]-6,8-dihydro-5H-pyrido[3,4-d]pyrimidin-4-yl]-1-prop-2-enoyl-piperazin-2-yl]acetonitrile] | 0.1 to 1 µM | IC50 (KRAS (G12C); [2]): 1 to 10 µM
C=CC(=O)N1CCN(c2nc(OC[C@@H]3CCCN3CCCCOCc3cccc(I)c3)nc3c2CCN(c2cccc4cccc(Cl)c24)C3)C[C@@H]1CC#N [Ex-3] | 0.1 to 1 µM | IC50 (KRAS (G12C); [2]): 1 to 10 µM
C=CC(=O)N1CCN(c2nc(OC[C@@H]3CCCN3CCCOC(=O)c3cccc(I)c3)nc3c2CCN(c2cccc4cccc(Cl)c24)C3)C[C@@H]1CC#N [Ex-4] | < 0.1 µM | 
C=CC(=O)N1CCN(c2nc(OC[C@@H]3CCCN3CCCNC(=O)c3cccc(I)c3)nc3c2CCN(c2cccc4cccc(Cl)c24)C3)C[C@@H]1CC#N [Ex-5, N-[3-[(2S)-2-[[7-(8-chloro-1-naphthyl)-4-[(3S)-3-(cyanomethyl)-4-prop-2-enoyl-piperazin-1-yl]-6,8-dihydro-5H-pyrido[3,4-d]pyrimidin-2-yl]oxymethyl]pyrrolidin-1-yl]propyl]-3-iodo-benzamide] | 1 to 10 µM | IC50 (KRAS (G12C); [2]): 1 to 10 µM
C=CC(=O)N1CCN(c2nc(OC[C@@H]3CCCN3CCCC(=O)OCc3cccc(I)c3)nc3c2CCN(c2cccc4cccc(Cl)c24)C3)C[C@@H]1CC#N [Ex-6, (3-iodophenyl)methyl 4-[(2S)-2-[[7-(8-chloro-1-naphthyl)-4-[(3S)-3-(cyanomethyl)-4-prop-2-enoyl-piperazin-1-yl]-6,8-dihydro-5H-pyrido[3,4-d]pyrimidin-2-yl]oxymethyl]pyrrolidin-1-yl]butanoate] | < 0.1 µM | 
C=CC(=O)N1CCN(c2nc(OC[C@@H]3CCCN3CCC(C)(C)OC(=O)c3cccc(I)c3)nc3c2CCN(c2cccc4cccc(Cl)c24)C3)C[C@@H]1CC#N [Ex-8, [3-[(2S)-2-[[7-(8-chloro-1-naphthyl)-4-[(3S)-3-(cyanomethyl)-4-prop-2-enoyl-piperazin-1-yl]-6,8-dihydro-5Hpyrido[3,4-d]pyrimidin-2-yl]oxymethyl]pyrrolidin-1-yl]-1,1-dimethyl-propyl]3-iodobenzoate] | 0.1 to 1 µM | 
C=CC(=O)N1CCN(c2nc(OC[C@@H]3CCCN3C)nc3c2CCN(c2cccc4cccc(I)c24)C3)C[C@@H]1CC#N [Ex-9, 2-[(2S)-4-[7-(8-iodo-1-naphthyl)-2-[[(2S)-1-methylpyrrolidin-2-yl]methoxy]-6,8-dihydro-5H-pyrido[3,4-d]pyrimidin-4-yl]-1-prop-2-enoyl-piperazin-2-yl]acetonitrile] | < 0.1 µM | IC50 (KRAS (G12C); [2]): 1 to 10 µM
C=CC(=O)N1CCN(c2nc(OC[C@@H]3CCCN3CCC(=O)O)nc3c2CCN(c2cccc4cccc(I)c24)C3)C[C@@H]1CC#N [Ex-10] | < 0.1 µM | 
C=CC(=O)N1CCN(c2nc(OC[C@@H]3CCCN3CCCC(=O)O)nc3c2CCN(c2cccc4cccc(I)c24)C3)C[C@@H]1CC#N [Ex-11, 4-[(2S)-2-[[4-[(3S)-3-(cyanomethyl)-4-prop-2-enoyl-piperazin-1-yl]-7-(8-iodo-1-naphthyl)-6,8-dihydro-5H-pyrido(3,4-d]pyrimidin-2-yl]oxymethyl]pyrrolidin-1-yl]butanoic acid] | < 0.1 µM | 
C=CC(=O)N1CCN(c2nc(OC[C@@H]3CCCN3CCC(C)(C)C(=O)O)nc3c2CCN(c2cccc4cccc(I)c24)C3)C[C@@H]1CC#N [Ex-12, 4-[(2S)-2-[[4-[(3S)-3-(cyanomethyl)-4-pop-2-enoyl-piperazin-1-yl]-7-(8-iodo-1-naphthyl)-6,8-dihydro-5H-pyrido[3,4-d]pyrimidin-2-yl]oxymethyl]pyrrolidin-1-yl]-2,2-dimethyl-butanoic acid] | < 0.1 µM | 
C=CC(=O)N1CCN(c2nc(OC[C@@H]3CCCN3CC(O)CO)nc3c2CCN(c2cccc4cccc(I)c24)C3)C[C@@H]1CC#N (some centres unmarked) [Ex-13] | < 0.1 µM | 
C=CC(=O)N1CCN(c2nc(OC[C@@H]3CCCN3CC(CO)CO)nc3c2CCN(c2cccc4cccc(I)c24)C3)C[C@@H]1CC#N [Ex-14, 2-[(2S)-4-[2-[I(2S)-1-[3-hydroxy-2-(hydroxymethyl)propylpyrrolidin-2-yl]methoxy]-7-(8-iodo-1-naphthyl)-6,8-dihydro-5H-pyrido(3,4-d]pyrimidin-4-yl]-1-prop-2-enoyl-piperazin-2-yl]acetonitrile] | < 0.1 µM | 
C=CC(=O)N1CCN(c2nc(OC[C@@H]3CCCN3CCCCCCNC(=O)CN3CCN4CCN5CCN(CC3)CC(=O)[O][Lu]([O]C(=O)C4)[O]C(=O)C5)nc3c2CCN(c2cccc4cccc(Cl)c24)C3)C[C@@H]1CC#N [Lu-CHL-001, N-[6-[(2S)-2-[[7-(8-chloro-1-naphthyl)-4-[(3 S)-3-(cyanomethyl)-4-prop-2-enoyl-piperazin-1-yl]-6,8-dihydro-5H-pyrido[3,4-d]pyrimidin-2-yl]oxymethyl]pyrrolidin-1-yl]hexyl]-2-(3,16,19-trioxo-2,17,18-trioxa-5,8,11,14-tetraza-1λ3-lutetatricyclo[9,6,3,25,14]docosan-8-yl)acetamide] |  | IC50 (KRAS (G12C)): 1 to 10 µM; IC50 [1]: 1 to 10 µM
C=CC(=O)N1CCN(c2nc(OC[C@@H]3CCCN3CCNC(=O)CN3CCN4CCN5CCN(CC3)CC(=O)[O][Lu]([O]C(=O)C4)[O]C(=O)C5)nc3c2CCN(c2cccc4cccc(Cl)c24)C3)C[C@@H]1CC#N [Lu-CHL-002, N-[2-[(2S)-2-[[7-(8-chloro-1-naphthyl)-4-[(3S)-3-(cyanomethyl)-4-prop-2-enoyl-piperazin-1-yl]-6,8-dihydro-5H-pyrido[3,4-d]pyrimidin-2-yl]oxymethyl]pyrrolidin-1-yl]ethyl]-2-(3,16,19-trioxo-2,17,18-trioxa-5.8,11,14-tetraza-1λ3-lutetatricyclo[9.6.3,25,14]docosan-8-yl)acetamide] |  | IC50 (KRAS (G12C); [2]): 1 to 10 µM; IC50 [1]: 1 to 10 µM
N-[4-[(2S)-2-[[7-(8-chloro-1-naphthyl)-4-[(3S)-3-(cyanomethyl)-4-prop-2-enoyl-piperazin-1-yl]-6,8-dihydro-5H-pyrido[3,4-d]pyrimidin-2yl]oxymethyl]pyrrolidin-1-yl]butyL]1J-2-[(6S,9S, 12S, 21 S)-6,9,12,21-tetraethyl-3,16,19-trioxo-2,17,18-trioxa-5,8,11,14-tetraza-17,3-lutetatricyclo[9.6.3,25,14]docosan-8-yl]acetamide [Lu-CHL-005] |  | IC50 [1]: 0.1 to 1 µM
